Results from ChEMBL document CHEMBL1201862, “PubChem BioAssay data set” (2004).
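96-well plates; 48 h exposure; 5 concentrations. Endpoints by linear interpolation between flanking doses. Not reached: highest tested concentration assigned. The concentration for 50% growth inhibition is given as GI50.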 Active and inactive are the calls of the source. Cut-off read from the data, not from the text of the source: active = GI50 up to about 1.1 µM and inactive = higher.

Tests used:
Assay in all cases: growth of human tumour cells (NCI), 48 h
[1] = system: NCI-H23
[2] = system: BT-549
[3] = system: IGROV-1
[4] = system: SF-539
[5] = system: MDA-MB-231
[6] = system: K562
[7] = system: SK-OV-3
[8] = system: 786-0
[9] = system: UACC-257
[10] = system: OVCAR-8
[11] = system: NCI/ADR-RES
[12] = system: NCI-H522
[13] = system: PC-3
[14] = system: HL-60
[15] = system: RPMI-8226
[16] = system: A549
[17] = system: CCRF-CEM
[18] = system: Malme-3M
[19] = system: SN12C
[20] = system: LOX IMVI
[21] = system: M14
[22] = system: SF-268
[23] = system: Hs-578T
[24] = system: MCF7
[25] = system: MDA-MB-435
[26] = system: DU-145
[27] = system: NCI-H226
[28] = system: UO-31
[29] = system: A498
[30] = system: TK-10
[31] = system: HCT-116
[32] = system: COLO 205
[33] = system: ACHN
[34] = system: SNB-19
[35] = system: SR
[36] = system: SK-MEL-28
[37] = system: UACC-62
[38] = system: SNB-75
[39] = system: OVCAR-3
[40] = system: CAKI-1
[41] = system: OVCAR-4
[42] = system: T47D
[43] = system: HT-29
[44] = system: RXF 393
[45] = system: HOP-62
[46] = system: NCI-H460
[47] = system: HCT-15
[48] = system: SF-295
[49] = system: EKVX
[50] = system: MOLT-4
[51] = system: OVCAR-5
[52] = system: KM12
[53] = system: U-251
[54] = system: SW-620
[55] = system: HCC 2998
[56] = system: SK-MEL-5
[57] = system: HOP-92
[58] = system: SK-MEL-2

Compound: O=C1/C(=C/c2cccc(O)c2)COc2ccccc21
- GI50 [1]: 5.74 µM (inactive)
- GI50 [2]: 15.5 µM (inactive)
- GI50 [3]: 7.96 µM (inactive)
- GI50 [4]: 9.86 µM (inactive)
- GI50 [5]: 8.2 µM (inactive)
- GI50 [6]: 2.78 µM (inactive)
- GI50 [7]: 21.3 µM (inactive)
- GI50 [8]: 4.69 µM (inactive)
- GI50 [9]: 2.64 µM (inactive)
- GI50 [10]: 7.38 µM (inactive)
- GI50 [11]: 2.17 µM (inactive)
- GI50 [12]: 2.51 µM (inactive)
- GI50 [13]: 7.83 µM (inactive)
- GI50 [14]: 4.5 µM (inactive)
- GI50 [15]: 1.15 µM (inactive)
- GI50 [16]: 20 µM (inactive)
- GI50 [17]: 1.59 µM (inactive)
- GI50 [18]: 8.89 µM (inactive)
- GI50 [19]: 8.04 µM (inactive)
- GI50 [20]: 1.95 µM (inactive)
- GI50 [21]: 4.27 µM (inactive)
- GI50 [22]: 18.4 µM (inactive)
- GI50 [23]: 9.77 µM (inactive)
- GI50 [24]: 3.63 µM (inactive)
- GI50 [25]: 5.73 µM (inactive)
- GI50 [26]: 14.2 µM (inactive)
- GI50 [27]: 11.4 µM (inactive)
- GI50 [28]: 10.5 µM (inactive)
- GI50 [29]: 20.3 µM (inactive)
- GI50 [30]: 15.4 µM (inactive)
- GI50 [31]: 1.75 µM (inactive)
- GI50 [32]: 13.5 µM (inactive)
- GI50 [33]: 1.78 µM (inactive)
- GI50 [34]: 7.11 µM (inactive)
- GI50 [35]: 2.16 µM (inactive)
- GI50 [36]: 4.45 µM (inactive)
- GI50 [37]: 3.88 µM (inactive)
- GI50 [38]: 15.5 µM (inactive)
- GI50 [39]: 2.01 µM (inactive)
- GI50 [40]: 3.44 µM (inactive)
- GI50 [41]: 5.32 µM (inactive)
- GI50 [42]: 6.47 µM (inactive)
- GI50 [43]: 3.27 µM (inactive)
- GI50 [44]: 10.1 µM (inactive)
- GI50 [45]: 15 µM (inactive)
- GI50 [46]: 20.8 µM (inactive)
- GI50 [47]: 1.42 µM
- GI50 [48]: 15.7 µM (inactive)
- GI50 [49]: 16.5 µM (inactive)
- GI50 [50]: 2.24 µM (inactive)
- GI50 [51]: 8.67 µM (inactive)
- GI50 [52]: 2.15 µM (inactive)
- GI50 [53]: 1.87 µM (inactive)
- GI50 [54]: 2.19 µM (inactive)
- GI50 [55]: 0.029 µM (active)
- GI50 [56]: 9.2 µM (inactive)
- GI50 [57]: 16.9 µM (inactive)
- GI50 [58]: 18 µM (inactive)
